Results reported in patent publication US12435059B2, “AMP-activated protein kinase inhibitors and methods of making and using the same” (The Regents of the University of Colorado, priority 2019, dated 2025).
Like-named read-outs stand apart in the source and are kept apart here.

Assays:
Assay in all cases: biochemical
Format in all cases: binding
468 kinases [1] = target: 468 kinases (Homo sapiens, UniProt P17612); conditions: PKAC-alpha; read-out: % Inhibition @ 100 nM
468 kinases [2] = target: 468 kinases (Homo sapiens, UniProt O15264); conditions: p38-delta; read-out: % Inhibition @ 100 nM
468 kinases [3] = target: 468 kinases (Homo sapiens, UniProt P80192); conditions: MLK1; read-out: % Inhibition @ 100 nM
468 kinases [4] = target: 468 kinases (Homo sapiens, UniProt P21709); conditions: EPHA1; read-out: % Inhibition @ 100 nM
468 kinases [5] = target: 468 kinases (Homo sapiens, UniProt Q05397); conditions: FAK; read-out: % Inhibition @ 100 nM
468 kinases [6] = target: 468 kinases (Homo sapiens, UniProt Q9HBY8); conditions: SGK2; read-out: % Inhibition @ 100 nM
468 kinases [7] = target: 468 kinases (Homo sapiens, UniProt P49760); conditions: CLK2; read-out: % Inhibition @ 100 nM
468 kinases [8] = target: 468 kinases (Homo sapiens, UniProt P49674); conditions: CSNK1E; read-out: % Inhibition @ 100 nM
468 kinases [9] = target: 468 kinases (Homo sapiens, UniProt P00533, L861Q); conditions: EGFR(L861Q); read-out: % Inhibition @ 100 nM
468 kinases [10] = target: 468 kinases (Homo sapiens, UniProt O00506); conditions: YSK1; read-out: % Inhibition @ 100 nM
468 kinases [11] = target: 468 kinases (Homo sapiens, UniProt Q8WTQ7); conditions: GRK7; read-out: % Inhibition @ 100 nM
468 kinases [12] = target: 468 kinases (Homo sapiens, UniProt P29376); conditions: LTK; read-out: % Inhibition @ 100 nM
468 kinases [13] = target: 468 kinases (Homo sapiens, UniProt P08631); conditions: HCK; read-out: % Inhibition @ 100 nM
468 kinases [14] = target: 468 kinases (Homo sapiens, UniProt Q15349); conditions: read-out: % Inhibition @ 100 nM
468 kinases [15] = target: 468 kinases (Homo sapiens, UniProt P36897); conditions: TGFBR1; read-out: % Inhibition @ 100 nM
468 kinases [16] = target: 468 kinases (Homo sapiens, UniProt P14616); conditions: INSRR; read-out: % Inhibition @ 100 nM
468 kinases [17] = target: 468 kinases (Homo sapiens, UniProt Q8N568); conditions: DCAMKL2; read-out: % Inhibition @ 100 nM
468 kinases [18] = target: 468 kinases (Homo sapiens, UniProt P42336, E545K); conditions: PIK3CA(E545K); read-out: % Inhibition @ 100 nM
468 kinases [19] = target: 468 kinases (Homo sapiens, UniProt Q99640); conditions: PKMYT1; read-out: % Inhibition @ 100 nM
468 kinases [20] = target: 468 kinases (Homo sapiens, UniProt Q6PHR2); conditions: ULK3; read-out: % Inhibition @ 100 nM
468 kinases [21] = target: 468 kinases (Homo sapiens, UniProt Q6ZN16); conditions: MAP3K15; read-out: % Inhibition @ 100 nM
468 kinases [22] = target: 468 kinases (Homo sapiens, UniProt P09769); conditions: FGR; read-out: % Inhibition @ 100 nM
468 kinases [23] = target: 468 kinases (Homo sapiens, UniProt Q15746); conditions: MYLK; read-out: % Inhibition @ 100 nM
468 kinases [24] = target: 468 kinases (Homo sapiens, UniProt Q8NEB9); conditions: VPS34; read-out: % Inhibition @ 100 nM
468 kinases [25] = target: 468 kinases (Homo sapiens, UniProt P00519, F317I); conditions: read-out: % Inhibition @ 100 nM
468 kinases [26] = target: 468 kinases (Homo sapiens, UniProt Q6P3R8); conditions: NEK5; read-out: % Inhibition @ 100 nM
468 kinases [27] = target: 468 kinases (Homo sapiens, UniProt Q07912); conditions: TNK2; read-out: % Inhibition @ 100 nM
468 kinases [28] = target: 468 kinases (Homo sapiens, UniProt Q96SB4); conditions: SRPK1; read-out: % Inhibition @ 100 nM
468 kinases [29] = target: 468 kinases (Homo sapiens, UniProt O14965); conditions: AURKA; read-out: % Inhibition @ 100 nM
468 kinases [30] = target: 468 kinases (Homo sapiens, UniProt Q8TDR2); conditions: STK35; read-out: % Inhibition @ 100 nM
468 kinases [31] = target: 468 kinases (Homo sapiens, UniProt P25098); conditions: GRK2; read-out: % Inhibition @ 100 nM
468 kinases [32] = target: 468 kinases (Homo sapiens, UniProt Q8N4C8); conditions: MINK; read-out: % Inhibition @ 100 nM
468 kinases [33] = target: 468 kinases (Homo sapiens, UniProt O15111); conditions: IKK-alpha; read-out: % Inhibition @ 100 nM

| Structure (SMILES) | inhibition at 0.1 µM (468 kinases [1]) [%] | inhibition at 0.1 µM (468 kinases [2]) [%] | inhibition at 0.1 µM (468 kinases [3]) [%] | inhibition at 0.1 µM (468 kinases [4]) [%] | inhibition at 0.1 µM (468 kinases [5]) [%] | inhibition at 0.1 µM (468 kinases [6]) [%] | inhibition at 0.1 µM (468 kinases [7]) [%] | inhibition at 0.1 µM (468 kinases [8]) [%] | inhibition at 0.1 µM (468 kinases [9]) [%] | inhibition at 0.1 µM (468 kinases [10]) [%] | inhibition at 0.1 µM (468 kinases [11]) [%] | inhibition at 0.1 µM (468 kinases [12]) [%] | inhibition at 0.1 µM (468 kinases [13]) [%] | inhibition at 0.1 µM (468 kinases [14]; RSK3(Kin.Dom.1-N-terminal)) [%] | inhibition at 0.1 µM (468 kinases [14]; RSK3(Kin.Dom.2-C-terminal)) [%] | inhibition at 0.1 µM (468 kinases [15]) [%] | inhibition at 0.1 µM (468 kinases [16]) [%] | inhibition at 0.1 µM (468 kinases [17]) [%] | inhibition at 0.1 µM (468 kinases [18]) [%] | inhibition at 0.1 µM (468 kinases [19]) [%] | other results |
| --- | --- | --- | --- | --- | --- | --- | --- | --- | --- | --- | --- | --- | --- | --- | --- | --- | --- | --- | --- | --- | --- |
| CCN(CC)CCNC(=O)c1c(C)[nH]c(/C=C2\C(=O)Nc3ccc(CCO)cc32)c1C [Compound No. 10, (Z)—N-(2-(Diethylamino)ethyl)-5-((5-(2-hydroxyethyl)-2-oxoindolin-3-ylidene)methyl)-2,4-dimethyl-1H-pyrrole-3-carboxamide] | 0 | 0 | 1 | 0 | 8 | 0 | 93.8 | 37 | 39 | 21 | 40 | 8 | 2 | 13 | 0 | 11 | 1 | 0 | 56 | 19 | inhibition at 0.1 µM (468 kinases [20]): 87%; inhibition at 0.1 µM (468 kinases [21]): 0%; inhibition at 0.1 µM (468 kinases [22]): 16%; inhibition at 0.1 µM (468 kinases [23]): 49%; inhibition at 0.1 µM (468 kinases [24]): 25%; inhibition at 0.1 µM (468 kinases [25]; ABL1 (F317I)-nonphosphorylated): 8%; inhibition at 0.1 µM (468 kinases [25]; ABL1 (F317I)-phosphorylated): 0%; inhibition at 0.1 µM (468 kinases [26]): 0%; inhibition at 0.1 µM (468 kinases [27]): 0%; inhibition at 0.1 µM (468 kinases [28]): 60%; inhibition at 0.1 µM (468 kinases [29]): 0%; inhibition at 0.1 µM (468 kinases [30]): 21%; inhibition at 0.1 µM (468 kinases [31]): 0%; inhibition at 0.1 µM (468 kinases [32]): 91.8%; inhibition at 0.1 µM (468 kinases [33]): 0% |
| CCN(CC)CCNC(=O)c1c(C)[nH]c(/C=C2\C(=O)Nc3ccc(CCC(N)=O)cc32)c1C [Compound No. 16, (Z)-5-((5-(3-Amino-3-oxopropyl)-2-oxoindolin-3-ylidene)methyl)-N-(2-(diethylamino)ethyl)-2,4-dimethyl-1H-pyrrole-3-carboxamide] | 0 | 0 | 5 | 0 | 100 | 14 | 100 | 4 | 4 | 22 | 76 | 0 | 0 | 7 | 19 | 1 | 10 | 3 | 41 | 18 | inhibition at 0.1 µM (468 kinases [20]): 25%; inhibition at 0.1 µM (468 kinases [21]): 71%; inhibition at 0.1 µM (468 kinases [22]): 32%; inhibition at 0.1 µM (468 kinases [23]): 34%; inhibition at 0.1 µM (468 kinases [24]): 46%; inhibition at 0.1 µM (468 kinases [25]; ABL1 (F317I)-phosphorylated): 31%; inhibition at 0.1 µM (468 kinases [26]): 19%; inhibition at 0.1 µM (468 kinases [27]): 20%; inhibition at 0.1 µM (468 kinases [28]): 78%; inhibition at 0.1 µM (468 kinases [29]): 41%; inhibition at 0.1 µM (468 kinases [30]): 15%; inhibition at 0.1 µM (468 kinases [31]): 48%; inhibition at 0.1 µM (468 kinases [32]): 81%; inhibition at 0.1 µM (468 kinases [33]): 20% |
